Experimental findings from patent US5185349A, “Substituted amide ACAT inhibitors lactone derivatives” (priority 1991, dated 1993) are described below.

Structures can show the parent of a compound that is named as a salt.

One may read the IC50 as the concentration that inhibits the measured activity by half. A low value points to greater potency in that assay.

This experiment addresses T1, acyl-CoA: cholesterol acyltransferase (ACAT) (Oryctolagus cuniculus, UniProt G1SFD9).
T1 construct: in a tissue preparation containing rabbit intestinal microsomes; from tissue; host or cells: rabbit intestine, microsomes
T1 sequence (G1SFD9 1-524): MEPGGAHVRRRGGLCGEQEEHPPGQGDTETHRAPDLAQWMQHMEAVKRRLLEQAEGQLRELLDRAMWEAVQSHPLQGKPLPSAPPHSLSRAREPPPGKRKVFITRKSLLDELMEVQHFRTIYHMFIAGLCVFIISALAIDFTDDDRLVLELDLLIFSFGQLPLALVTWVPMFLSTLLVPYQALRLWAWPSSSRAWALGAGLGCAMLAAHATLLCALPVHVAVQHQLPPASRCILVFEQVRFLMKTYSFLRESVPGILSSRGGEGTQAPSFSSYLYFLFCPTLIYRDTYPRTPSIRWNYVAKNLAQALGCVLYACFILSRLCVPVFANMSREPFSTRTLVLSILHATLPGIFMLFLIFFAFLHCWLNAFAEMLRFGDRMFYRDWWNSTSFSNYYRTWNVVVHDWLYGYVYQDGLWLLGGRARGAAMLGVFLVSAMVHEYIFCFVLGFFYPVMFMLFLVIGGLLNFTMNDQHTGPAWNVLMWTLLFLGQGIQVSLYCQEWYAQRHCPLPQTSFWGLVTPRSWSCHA
Description: in vitro ACAT inhibition test (radiolabeled cholesterol oleate formed from radiolabeled oleic acid, rabbit intestinal microsomes). It is filed as biochemical. The following applies: concentration required to inhibit the activity of the enzyme by 50%. How it is done:
The ability of representative compounds of the present invention to inhibit ACAT was measured using an in vitro test more fully described in F. J. Field and R. G. Salone, Biochemica et Biophysica 712:557-570 (1982). The test assesses the ability of a test compound to inhibit the acylation of cholesterol by oleic acid by measuring the amount of radiolabeled cholesterol oleate formed from radiolabeled oleic acid in a tissue preparation containing rabbit intestinal microsomes.
The data appear in Table 1 where they are expressed as IC50 values; i.e., the concentration of test compound required to inhibit the activity of the enzyme by 50%.
As for `CCCCCCCC1CCC(C(=O)Nc2c(C(C)C)cccc2C(C)C)C(=O)O1` (centres unmarked) [Example 4, N-[2,6-bis(1-methylethyl)phenyl]-6-heptyltetrahydro-2-oxo-2H-pyran-3-carboxamide], the IC50 was 0.336 µM.
In the case of `CCCCCCC1CCC(C(=O)Nc2c(C(C)C)cccc2C(C)C)C(=O)O1` (centres unmarked) [Example 3, N-[2,6-bis(1-methylethyl)phenyl]-6-hexyltetrahydro-2-oxo-2H-pyran-3-carboxamide], the IC50 was found to be 0.404 µM.
With `CC(C)c1cccc(C(C)C)c1NC(=O)C(CC(O)c1ccc(F)cc1)C(=O)O` (stereo not drawn) [Example 7, γ-[2,6-bis(1-methylethyl)phenyl]-amino]carbonyl]-4-fluoro-α-hydroxybenzenebutanoic acid monosodium salt], 1.33 µM corresponded to half-maximal inhibition (IC50).
Consider `CC(C)c1cccc(C(C)C)c1NC(=O)C1CC(c2ccc(F)cc2)OC1=O` (centres unmarked) [Example 1, N-[2,6-bis(1-methylethyl)phenyl]-5-(4-fluorophenyl)tetrahydro-2-oxo-3-furancarboxamide], for which the midpoint of inhibition, the IC50, lay at 0.587 µM.
On to `CCCCCCCC1CC(C(=O)Nc2c(C(C)C)cccc2C(C)C)C(=O)O1` (centres unmarked) [Example 2, N-[2,6-bis(1-methylethyl)phenyl]-5-heptyltetrahydro-2-oxo-3-furancarboxamide], for which the IC50 came out at 0.26 µM.
